Laboratory results from patent US20130205659A1, “METHOD OF CONTROLLING FUSARIUM VIGULIFORME AND SOYBEAN SUDDEN DEATH SYNDROME USING THIABENDAZOLE” (SYNGENTA CROP PROTECTION LLC, priority 2010, published 2013).

System: Fusarium virguliforme
Test: Growth chamber soybean sudden death syndrome seed treatment test, soil inoculated with F. virguliforme spores, visual disease severity rating
Assay type: in vivo
Conditions: for reduction in disease severity: seed treatment, versus control; for Sudden death syndrome Disease Severity (1-9): seed treatment (thiabendazole 5 g ai/100 kg seed; 2.5 g fludioxonil + 3.75 g mefenoxam/100 kg seed), averaged across five growth chamber runs, Njiti et al. scale
From the text: Soybean cultivars NK-529-J6 and NK-533-T4 where used for testing. Cultivar NK-529-J6 is labeled as partially resistant to SDS and cultivar NK-533-T4 is labeled susceptible to SDS (Syngenta Seeds, Minneapolis, Minn.). Thiabendazole fungicide seed treatment was applied to both cultivars at a rate of 5 g a.i./100 kg seed. A mefenoxam and fludioxonil combination fungicide seed treatment was also applied at a rate of 3.75 g a.i./100 kg seed and 2.5 g a.i./100kg seed, respectively. Three pathogenic isolates of F. virguliforme (Scherm et al., 1978) were used to inoculate grain sorghum (Sorghum bicolor (L.)) following the methods of Farris Neto et al. (2006). Isolates were grown on one third strength Difco Potato Dextrose Agar (PDA) growth medium. After 18 days, isolate growth on the PDA was divided into thirds and placed into a bag containing 2.27 kg of sorghum seed and allowed to incubate at room temperature for 15 days. Five experiments were conducted in a growth chamber. Each experiment was a randomized complete block design with eight replications. A 1:1 ratio of soil and sand medium was mixed together thoroughly, and steam sterilized at 121° C. for one hour. Upon sterilization of the soil medium 150 g of soil and 2.25 g of yellow cornmeal was weighed and mixed together for each conetainer. A spore suspension was prepared using 17 to 20 day old isolates of F. virguliforme grown on PDA media. Each isolate was aseptically flooded with sterilized, de-ionized water and scraped from the PDA plates causing the release of F. virguliforme spores. Each isolate was then strained through cheesecloth and mixed together to produce the spore suspension. Spore concentrations were determined using a hemacytometer, and concentrations were adjusted to produce 10 000 spores g soil^−1. After the spore concentration was determined the spore suspension was diluted to a volume of 13 ml of spore suspension per conetainer. The soil was then inoculated with the diluted spore suspension (Gongora-Canul and Leandro, 2007). Once the soil was inoculated, conetainers were filled level full with the inoculated soil, and then planted with two seeds of each variety by seed treatment combination (after emergence, thinned to one plant per conetainer) and placed in the growth chamber. Growth chambers were set at 17° C. for one week then changed to 24° C., and maintained for the remainder of the experiment. Growth chambers were set to 17° C. to help slow the germination of the soybean and therefore increase the probability for infection of F. virguliforme to take place (Gongora-Canul and Leandro, 2008). […]
Data collection for the growth chambers consisted of visual disease ratings of SDS symptom severity following the methods of Njiti et al. (1996). […] Disease incidence was recorded as a presence/absence rating.

With c1ccc2[nH]c(-c3cscn3)nc2c1 [Thiabendazole, thiabendazole] the “reduction in disease severity” value (soybean cultivar NK-533-T4) was 35%, the “Sudden death syndrome Disease Severity (1-9)” value (soybean cultivar NK-S29-J6 (partially resistant to SDS)) was 0.96 and the “reduction in disease severity” value (soybean cultivar NK-S29-J6 (printed NK-29-J6)) was 25%. For the same molecule, the “Sudden death syndrome Disease Severity (1-9)” value (soybean cultivar NK-S33-T4 (SDS susceptible), LSD (0.05) 0.39) was 1.08.
